Values quoted from earlier work as cited in publication PMC3222680 (PLoS ONE, 2011).

System: α1 β GlyRs with cysteine mutations in the M2–M3 loop of the β subunit
Settings: cysteine-substituted α1 β GlyRs (β subunit M2–M3 loop) ref 22; cited from earlier work

## C[N+](C)(C)CCSS(C)(=O)=O [MTSET, 2-trimethylammoniumethylmethane thiosulfonate]
  channel function in response to MTSET treatment: did not change
